Experimental data from the NIST ThermoML archive (doi:10.1021/acs.jced.5b00948).

What was measured:
[1] = refractive index (Na D-line) (dimensionless); wn = mass fraction of the nth substance listed; details: 298.15 K, 100 kPa, Liquid, Standard Abbe refractometry
[2] = wn = mass fraction of the nth substance listed; details: 298.15 K, 100 kPa, Liquid, Vibrating tube method
[3] = mn = molality of the nth substance listed, in mol/kg; details: 298.15 K, 100 kPa, Liquid, Alternating current cell with electrodes
[4] = refractive index (Na D-line) (dimensionless); details: 298.15 K; 100 kPa; Liquid; Standard Abbe refractometry

CCCCn1cc[n+](C)c1.N[C@@H](CCC(=O)O)C(=O)[O-] [1-butyl-3-methylimidazolium (S)-2-amino-4-carboxybutanoate] + O
Details	electrical conductivity [S/m]	mass density [kg/m3]	refractive index
[1], w1 = 0.05	–	–	1.3448
[1], w1 = 0.103	–	–	1.3584
[1], w1 = 0.152	–	–	1.3724
[1], w1 = 0.2	–	–	1.3838
[1], w1 = 0.299	–	–	1.4025
[1], w1 = 0.377	–	–	1.4179
[1], w1 = 0.492	–	–	1.4473
[1], w1 = 0.576	–	–	1.4684
[2], w1 = 0.111	–	1022.7	–
[2], w1 = 0.183	–	1038.8	–
[2], w1 = 0.273	–	1058.6	–
[2], w1 = 0.353	–	1075.4	–
[2], w1 = 0.42	–	1091	–
[2], w1 = 0.491	–	1105.2	–
[2], w1 = 0.561	–	1122.2	–
[2], w1 = 0.628	–	1136.6	–
[2], w1 = 0.717	–	1153.7	–
[2], w1 = 0.773	–	1167.1	–
[2], w1 = 0.836	–	1181.6	–
[2], w1 = 0.863	–	1185.8	–
[3], m1 = 0.061	0.277	–	–
[3], m1 = 0.101	0.364	–	–
[3], m1 = 0.142	0.466	–	–
[3], m1 = 0.196	0.577	–	–
[3], m1 = 0.253	0.676	–	–
[3], m1 = 0.361	0.869	–	–
[3], m1 = 0.439	1.01	–	–
[3], m1 = 0.541	1.13	–	–
[3], m1 = 0.628	1.205	–	–
[3], m1 = 0.715	1.27	–	–
[3], m1 = 0.848	1.37	–	–
[3], m1 = 0.963	1.431	–	–

CCCCCCCC[n+]1ccn(C)c1.[Cl-] [1-methyl-3-octylimidazolium chloride] + O
[3]
Details	electrical conductivity [S/m]
m1 = 0.03	0.245
m1 = 0.06	0.425
m1 = 0.124	0.712
m1 = 0.18	0.901
m1 = 0.242	1.03
m1 = 0.284	1.1
m1 = 0.319	1.123
m1 = 0.352	1.18
m1 = 0.389	1.204
m1 = 0.421	1.228
m1 = 0.48	1.26
m1 = 0.51	1.28
m1 = 0.541	1.301

O [water]
Details	refractive index
[4]	1.3325
